Test results from BindingDB's records for doi:10.1021/jm300491y (San Francisco State University, 2012).

Assay: Inhibition of UT-B in wild type CD1 mouse erythrocyte assessed as hemolysis after 10 mins
With CC(C)c1ccc(S(=O)(=O)c2nnn3c2nc(NCc2cccc4ccccc24)c2sccc23)cc1 the IC50 was > 2.5 µM. For Cc1ccc(S(=O)(=O)c2nnn3c2nc(N2CCCCC2)c2sccc23)cc1C, the IC50 was > 25 µM. With CCc1ccc(S(=O)(=O)c2nnn3c2nc(N2CCOCC2)c2sccc23)cc1 the IC50 was 5.6 µM.
